# In patent publication US20220143123A1, “Prevention of Pathological Coagulation in COVID-19 and other Inflammatory Conditions” (priority 2020, published 2022):
# Entries after “also recorded” stand apart in the source; their conditions may differ. Like-named read-outs stand apart in the source and are kept apart here.
# Experiments:
# Tissue Factor = assay: TNF-alpha induced Tissue Factor expression in HUVEC, flow cytometry; type: cell-based, human; settings: TNF-alpha stimulation 48 hours
# Protocol: In the experiments below, human umbilical vein endothelial cells (HUVEC) where purchased from AllCells and grown in Opti-MEM media with complete fetal calf serum. Cells were stimulated with the indicated concentrations of TNF-alpha for 48 hours and incubated with the indicated concentrations of individual components of QuadraMune™ as well as the combination. Quantification of Tissue Factor was performedby flow cytometry and expressed as mean fluorescent intensity (MFI).
# [1] = tested on: Nrf2 (+/+) primary peritoneal macrophages; settings: cited from earlier work
# [2] = tested on: LPS-challenged macrophages; settings: pre-incubated 6 h (0 to 50 μM), LPS 24 h; cited from earlier work
# [3] = tested on: BALB/c mice with LPS-induced ARDS; settings: cited from earlier work
# [4] = tested on: lipopolysaccharide-induced inflammatory reactions; settings: cited from earlier work
# [5] = tested on: mice challenged with endotoxin (LPS O111:B4) or live Escherichia coli; settings: cited from earlier work; for concentration of IL-1α: controls 1187.0±278.64
# [6] = tested on: lipopolysaccharide-activated macrophages; settings: cited from earlier work
# [7] = tested on: nuclear factor-κB (NF-κB); settings: macrophage foam cells; cited from earlier work
# [8] = tested on: rats subjected to myocardial ischemia and reperfusion; settings: 10 mg/kg intravenously then 10 mg/kg/h infusion; cited from earlier work
# [9] = tested on: mice with experimental colitis; settings: 50 and 100 mg/kg/day; cited from earlier work
# male Sprague-Dawley rats = settings: 10 mg/kg intraperitoneally at 1 and 6 h after CL2P and every 12 h; cited from earlier work
# C57BL6 mice = settings: 10 mg/kg intraperitoneally, 72 h after CL2P; cited from earlier work
# mice = settings: cited from earlier work
# [10] = tested on: mice with LPS-induced ARDS; settings: 10 mg/kg ip; cited from earlier work
# NK cell = assay: Nanostilbene in cancer patients: NK cell activity and interferon gamma production; type: in vivo, human; settings: pterostilbene administered in the form of nanostilbene in cancer patients
# [11] = animal studies; cited from earlier work
# [12] = tested on: interleukin-1, interleukin-6, interleukin-8, TNF-alpha; settings: cited from earlier work
# [13] = tested on: human umbilical vein VECs (HUVECs); settings: oxLDL 200 μg/ml; cited from earlier work
# apoE(−/−) mice = settings: injection; cited from earlier work
# [14] = tested on: lectin-like oxLDL receptor-1 (LOX-1); settings: in vitro and in vivo; cited from earlier work
# [15] = 50 mg/kg, LPS 5 mg/kg 3 days later
molecule,measurement,setting,value
"C[S+]([O-])CCCCN=C=S (stereo not drawn) [sulforaphane, 1-isothiocyanato-4-(methylsulfinyl)-butane]",TNF-alpha induced Tissue Factor expression (mean fluorescent intensity),Tissue Factor,reduction of TNF-alpha induced Tissue Factor expression
same,TNF-alpha induced Tissue Factor expression (mean fluorescent intensity),Tissue Factor; listed as Sulforaphane,reduces inflammation induced tissue factor expression
same,HO-1 expression,[1]; LPS-stimulated Nrf2 (+/+) macrophages,significantly augmented
same,"LPS-stimulated mRNA expression, protein expression and production of TNF-alpha, IL-1beta, COX-2 and iNOS","[1]; pretreatment, Nrf2 (+/+) macrophages",potently inhibited
same,expression of NO and cytokines,[2],able to prevent the expression of NO and cytokines
same,"serum levels of IL-6 and TNF-α, nuclear factor-κB protein expression","[3]; 50 mg/kg, ELISA",significantly decreased
same,lactate dehydrogenase (LDH) activity,[3]; [15],significantly decreased
same,wet-to-dry ratio of the lungs,[3]; [15],significantly decreased
same,"PGE2 production, COX-2 and MMP-9 protein expression, iNOS activity",[3]; 50 mg/kg,significantly inhibited
same,Nrf2/antioxidant response element (ARE) pathway,[3]; pre-treatment,activated
CC1=CC(=O)C(C(C)C)=CC1=O [thymoquinone],TNF-alpha induced Tissue Factor expression (mean fluorescent intensity),Tissue Factor,reduction of TNF-alpha induced Tissue Factor expression
same,TNF-alpha induced Tissue Factor expression (mean fluorescent intensity),Tissue Factor; listed as Thymoquinone,reduces inflammation induced tissue factor expression
same,lipopolysaccharide-induced inflammatory reactions,[4],suppressed effectively the lipopolysaccharide-induced inflammatory reactions
same,concentration of nitric oxide,[4]; marker of inflammation,reduced significantly the concentration of nitric oxide
same,concentration of IL-1α,[5]; 0.75 mg/kg dose,310.8 ± 70.93 pg/mL
same,IL-10 levels,"[5]; 0.75 mg/kg, controls 5505.2±333.96",2885.0 ± 553.98 pg/mL
same,concentration of IL-1α,[5]; 1 mg/kg group,428.3 ± 71.32 pg/mL
same,levels of TNF-α and IL-2,[5]; P values=0.1817 and 0.0851,relatively lower levels of TNF-α and IL-2
same,reduction of mortality,"[5]; mice, sepsis",80-90%
same,renal and hepatic biomarker profiles,"[5]; mice, sepsis",improved both renal and hepatic biomarker profiles
epigallocatechin-3-gallate [EGCG],TNF-alpha induced Tissue Factor expression (mean fluorescent intensity),Tissue Factor,reduces inflammation induced tissue factor expression; also recorded: reduction of TNF-alpha induced Tissue Factor expression
same,activation of nuclear factor-kappaB,[6]; electrophoretic mobility shift assay,blocked the activation of nuclear factor-kappaB
same,nitric oxide (NO) generation,[6]; marker of activated macrophages,inhibit nitric oxide (NO) generation
same,TNF-α-induced NF-κB activity,[7],inhibition of the TNF-α-induced nuclear factor-κB (NF-κB) activity
same,myocardial damage and myeloperoxidase activity,[8],reduced myocardial damage and myeloperoxidase activity
same,plasma IL-6 and creatine phosphokinase levels,[8],decreased
same,plasma levels of IL-10 and TGF-β1,[9],increasing the plasma levels of IL-10 and TGF-β1
same,release of IL-6 and IL-17,[9],reduce the release of IL-6 and IL-17
same,hypotension (mean arterial blood pressure),male Sprague-Dawley rats,significantly improved
same,survival,C57BL6 mice,significantly improved
same,rescue from lethal sepsis,mice; first dose 24 hours after cecal ligation and puncture,rescued mice from lethal sepsis
same,protection against lethal endotoxemia,mice; intraperitoneal administration,protected mice against lethal endotoxemia
same,"expression of TNF-α, IL-1β and IL-6 in lung, serum and bronchoalveolar lavage fluid",[10],significantly decreased
"trans-3,5-dimethoxy-4-hydroxystilbene [pterostilbene]",TNF-alpha induced Tissue Factor expression (mean fluorescent intensity),Tissue Factor,reduction of TNF-alpha induced Tissue Factor expression
same,TNF-alpha induced Tissue Factor expression (mean fluorescent intensity),Tissue Factor; listed as Pterostilbene,reduces inflammation induced tissue factor expression
same,NK cell activity,NK cell,increased NK cell activity
same,interferon gamma production,NK cell,increased
same,bioavailability,[11],80%
same,"inhibition of inflammatory cytokines (interleukin-1, interleukin-6, interleukin-8, TNF-alpha)",[12],inhibit inflammatory cytokines associated with ARDS
same,"protection against oxLDL-induced cell shrinkage, chromatin condensation, nuclear fragmentation, apoptosis",[13],protected against such injuries
same,number of TUNEL-positive cells in the endothelium of atherosclerotic plaque,apoE(−/−) mice,strongly decreased the number of TUNEL-positive cells
same,LOX-1 expression,[14],inhibited the expression of lectin-like oxLDL receptor-1 (LOX-1)
